Experimental data from US6008239A, “Triazole derivative or salt thereof” (SSP Co., Ltd., priority 1997, dated 1999).
In brackets after ≈: the same amount, converted by molar mass.

Assays:
A. flavus IFM 41935 = assay: Antifungal Activity Against Aspergillus flavus (In vitro); assay type: cell-based; details: IFM41935, RPMI 1640 with 0.165M MOPS, pH 7, 35° C., 24 hours
Method: Test 3: Antifungal Activity Against Aspergillus flavus (In vitro)
(§1) They were incubated at 35° C. for 24 hours. After incubation, the minimum medicament concentration permitting the apparent suppression of mycerial type growth compared with that of a medicament-free control was determined as an MIC value (μg/ml).

C. albicans ATCC 44859 = assay: Antifungal Activity Against Candida albicans (In vitro); assay type: cell-based; details: ATCC44859, MEM + 10% fetal bovine serum, 37° C., 24 hours, CO2 incubator, read-out: Terminal point (minimum medicament concentration permitting apparent suppression of mycerial type growth)
Method: Test 1: Antifungal Activity Against Candida albicans (In vitro)
They were incubated at 37° C. for 24 hours in a CO2 gas incubator. After incubation, a morphological change of C. albicans was observed under an inverted microscope. The minimum medicament concentration permitting the apparent suppression of mycerial type growth compared with that of a medicament-free control was determined as a terminal point (ng/ml).

A. fumigatus IFM 40808 = assay: Antifungal Activity Against Aspergillus fumigatus (In vitro); assay type: cell-based; details: IFM40808, RPMI 1640 with 0.165M MOPS, pH 7, 35° C., 24 hours
Method: Test 2: Antifungal Activity Against Aspergillus fumigatus (In vitro)
as §1

C. albicans IFM 40009 = assay: Antifungal Activity Against Candida albicans (In vivo), survival of infected mice; design: species or system Candida albicans in male ICR (CRJ: CD-1) mice; details: i.v. C. albicans infection, oral 1.25 mg/kg, four times in total; for Survival days: 14 days observation, Kaplan-Meier (Cox mantel test), ***: p < 0.001, control 4.1; for Survival mice on Day 14: survivors/total on day 14, control 0/10
Method: Test 4: Antifungal Activity Against Candida albicans (In vivo)
After 4-week-old, male, ICR (CRJ: CD-1) mice were fasted for 6 hours, C. albicans IFM 40009 was inoculated to a tail vein of each of the mice to give an amount of 3.0×10^6 cells/mouse, whereby infection was caused. A control group consisted of 10 mice, while a medicament-administered group consisted of 5 mice. The medicament was orally administered one hour after the inoculation of the fungus and then consecutively once a day 24 hours after the inoculation, four times in total, at 1.25 mg/kg each. The survival condition during 14 days after the infection was compared. In addition, the survival days of the control group and the medicament-administered group were detected by the Kaplan-Meier method (Cox mantel test).

MIC (C. albicans ATCC 44859) [µg/mL] | SMILES | MIC (A. flavus IFM 41935) [µg/mL] | MIC (A. fumigatus IFM 40808) [µg/mL] | Survival days (C. albicans IFM 40009) [days] | Survival mice on Day 14 (C. albicans IFM 40009)
0.0625 | COCCSC(F)(F)C(Cn1cncn1)(OC)c1ccc(F)cc1F (stereo not drawn) [Example 1, 1-{2-(2,4-difluorophenyl)-3,3-difluoro-2-methoxy-3-[(2-methoxyethyl)thio]propyl}-1H-1,2,4-triazole] | > 64 | 64 (≈ 169 µM) | – | –
– | COCCS(=O)(=O)C(F)(F)C(Cn1cncn1)(OC)c1ccc(F)cc1F (stereo not drawn) [Example 7, 1-{2-(2,4-difluorophenyl)-3,3-difluoro-2-methoxy-3-[(2-methoxyethyl)sulfonyl]propyl}-1H-1,2,4-triazole] | – | – | 14.0 | 5/5
– | COC(Cn1cncn1)(c1ccc(F)cc1F)C(F)(F)S(=O)(=O)CCO (stereo not drawn) [Example 9, 2-{[2-(2,4-Difluorophenyl)-1,1-difluoro-2-methoxy-3-(1H-1,2,4-triazol-1-yl)propyl]sulfonyl}-1-ethanol] | – | – | 14.0 | 5/5
– | CCOC(Cn1cncn1)(c1ccc(F)cc1F)C(F)(F)S(=O)(=O)CCO (stereo not drawn) [Example 10, 2-{[2-(2,4-Difluorophenyl)-2-ethoxy-1,1-difluoro-3-(1H-1,2,4-triazol-1-yl)propyl]sulfonyl}-1-ethanol] | – | – | 13.4 | 4/5
– | COC(Cn1cncn1)(c1ccc(F)cc1F)C(F)(F)S(=O)(=O)CCOC(C)=O (stereo not drawn) [Example 12, 2-{[2-(2,4-Difluorophenyl)-1,1-difluoro-2-methoxy-3-(1H-1,2,4-triazol-1-yl)propyl]sulfonyl}ethyl acetate] | – | – | 14.0 | 4/5
– | OC(Cn1cncn1)(Cn1cncn1)c1ccc(F)cc1F [Fluconazole, reference compound] | > 128 | > 128 | 9.6 | 0/5
